Measurements as given in patent US20090123940A1, “MOLECULES INVOLVED IN SYNAPTOGENESIS AND USES THEREFOR” (THE JOHNS HOPKINS UNIVERSITY, priority 2007, published 2009).

Legend:
[1] = system: LFC-NPR (TACE cleavage of NPR); test: Western blot of LFC-NPR in lysates of cultured cortical neurons after DHPG; format: cell-based
Protocol: Cell Culture, Transfection, Western Blot Analysis, and Co-immunoprecipitation analysis. HEK293T and […] (ATCC, Manassas, Va.) cell maintenance and transfection methods have been described previously (Xu et al., supra). Preparation and transfection of cultured hippocampal neurons were described previously (Rumbaugh et al., J Neurosci 23:4567-76, 2003). Western blot analysis of homogenates of HEK293T cells, cultured neurons, and brain extracts was performed as described previously (Xu et al., supra). Co-IP analysis to measure interaction between NPR and AMPAR was performed as described (Xu et al., supra).
Ab LFC-NPR was used to examine the possibility that mGluR1/5 might regulate cleavage of NPR. mGluR1/5 activates PKC via phospholipase C and the production of diacylglycerol (DAG) and inositol triphosphate (IP3) that releases intracellular Ca^2+. […] Ab LFC-NPR detected a ˜60 kDa band from lysates that increased in intensity (expressed as a percent control) over time after stimulation with DHPG. No specific band was detected in the medium by Ab LFC-NPR or other NPR Abs. Absence of LFC-NPR in the medium of neurons was consistent with the observation that both Narp and NP1 were absent from medium even though they are secreted proteins detected on the cell surface using live labeling methods. […]

[2] = system: Purkinje cells cultured from embryonic mouse cerebellum; test: LTD of glutamate-evoked inward current in cultured Purkinje cells (glutamate test pulses paired with depolarizing steps); format: cell-based; conditions: t=40 min; TAPI-2 10 μM, GM6001 1 μM, GM6001 control compound 1 μM; n=7
Protocol: (§1) Recording and Ca^2+ imaging in cerebellar cultures. Cultures of embryonic mouse cerebellum were prepared as previously described and recordings were performed according to our previously published method (Leitges et al., Neuron 44:585-94, 2004). […]. Test pulses were delivered using negative current pulses (300-700 nA, 30-80 msec duration). LTD-inducing pairing stimuli consisted of six, 3-s-long depolarizations to 0 mV, each delivered together with a test pulse of glutamate.
(§2) Membrane currents were recorded with an Axopatch 200A amplifier, and digitized at 10 kHz for exogenous glutamate responses and 20 kHz for mEPSCs. Signals were lowpass filtered at 5 kHz (1 kHz for mEPSCs) and acquired using Axograph X software (Axograph Scientific, Sydney, Australia). Recordings in which Rinput or Rseries varied by more than 10% were excluded from the analysis. For analysis of mEPSCs, Axograph X mini analysis software was used. This detected events based on closeness of fit of the mEPSC to a sliding template. Events smaller than − ? 4 pA were discarded. A separate template was created for each recording by averaging 30 of its most unambiguous mEPSCs as selected by eye.
Other studies have shown that LTD in Purkinje cells cultured from embryonic mouse cerebellum requires activation of mGluR1, and is expressed postsynaptically as a reduction in surface AMPA receptors (Chung et al., Science 300:1751-5, 2003; Leitges et al., Neuron 44:585-94, 2004; Linden, PNAS 98:14066-71, 2001; Matsuda et al., EMBO J. 19:2765-74, 2000; Steinberg et al., Neuron 49:845-60, 2006; Wang and Linden, Neuron 25:635-47, 2000). Here, LTD was examined using a purely postsynaptic model in which iontophoretic test pulses of glutamate are applied to voltage-clamped Purkinje cells in culture. Following a baseline recording period, LTD was induced by pairing six 3 sec long depolarizing steps to 0 mV with six glutamate test pulses. When test pulses were resumed after pairing, LTD of the glutamate-evoked inward current was evident (52±9.0% of baseline at t=40 min, n=7 cells, FIG. 6A). […]

[3] = system: NPR cleavage at Site A (TACE); test: NPR cleavage assay in transfected HEK293T cells; format: cell-based, rat; conditions: TAPI-2 50 μM; GM6001 25 μM
Protocol: Cleavage Assay HEK293T cells were plated in OptiMEM (Invitrogen, Carlsbad, Calif.) containing 5% FBS onto 6-well dishes at a density of 4×10^5 cells/mL (2 mL/well) 1 day before transfection. Cells were transfected with NPR in pRK5 using LipofectAMINE 2000 (Invitrogen, Carlsbad Calif.). After 24 hr the medium was replaced with serum-free OptiMEM. […] Samples from each well were obtained at specific time points, immediately placed on ice, centrifuged at 15,000 g to remove cell debris, and then treated with 2% β-mercaptoethanol containing loading buffer. At the end of the time course, the cells were lysed with RIPA buffer, centrifuged to remove cell debris, and treated with 2% β-mercaptoethanol in loading buffer. Samples (20 μL of medium or lysate diluted to 1/5) were run on SDS-PAGE gels and analyzed by Western blotting.

[4] = system: cultured cerebellar Purkinje cells; test: Basal electrophysiological properties and Ca2+ imaging in cultured cerebellar Purkinje cells; format: cell-based, mouse; conditions: TAPI-2 10 μM; GM6001 1 μM; GM6001 control 1 μM; mean ± SEM
Protocol: as §1, §2
Bis-Fura-2 ratio imaging of intracellular free Ca^2+ in the dendritic shafts of cultured Purkinje cells was accomplished by measuring the background corrected fluorescence ratio at 340 and 380 nm excitation using a cooled CCD camera system. In these experiments, EGTA was removed from the internal saline and replaced with 100 μM bis-Fura-2.

SMILES | DHPG-stimulated increase in LFC-NPR ([1]; pretreatment of cultured neurons with TAPI-2) | glutamate-evoked inward current after LTD induction [2] | PMA-stimulated cleavage at Site A / secretion of LFC-NPR into the medium [3] | DHPG-evoked (dendritic Ca2+ transient) [4] [nM] | Depol-evoked (dendritic Ca2+ transient) [4] [nM] | Resting Ca2+ [4] [nM] | mEPSC 10-90% rise [4] [msec] | mEPSC 50% decay [4] [ms] | mEPSC amp [4] [pA] | increase of LFC-NPR levels in lysates ([1]; 90 minutes after stimulation with 50 μM DHPG for 5 minutes, cultured cortical neurons ~DIV 14)
CC(C)C[C@H](CC(=O)NO)C(=O)N[C@H](C(=O)N[C@@H](C)C(=O)NCCN)C(C)(C)C [TAPI-2] | blocked | 112±8.6 % of baseline | inhibited | 231 ± 35 | 604 ± 89 | 109 ± 22 | 1.8 ± 0.4 | 7.7 ± 0.6 | 27 ± 7 | 
N[C@H](C(=O)O)c1cc(O)cc(O)c1 [DHPG, (S)-3,5-dihydroxyphenylglycine] |  |  |  |  |  |  |  |  |  | 60.7%±2.5%
